Assay results taken from paper PMC5905968, “Evaluation of the fusion inhibitor P3 peptide as a potential microbicide to prevent HIV transmission in women” (PLoS ONE, 2018).

Assays:
[1] = system: vaginal epithelium of BALB/c mice; test: BALB/c mice vaginal irritation test with histological score; format: in vivo; set-up: key to Epithelial lesion / Inflammatory infiltrate / Vascular congestion / Edema/fibrosis / Total Score: 0 (no change) when no injury or the observed changes were within normal range; 1 (minimum) when changes were sparse but exceeded those considered normal; 2 (light) when injuries were identifiable but with no severity; 3 (moderate) for significant injury that could increase in severity; 4 (very serious) for very serious injuries that occupy most of the analyzed tissue; conditions: for Edema/fibrosis / Epithelial lesion / Inflammatory infiltrate / Vascular congestion / Total Score: 7 days; for Total Score: sum of the four lesion scores
Method: Female BALB/c mice (6–8 weeks-old) (Charles River Laboratories, Wilmington, MA) were pretreated subcutaneously with 2mg of medroxyprogesterone acetate (Depo-Provera; Pfizer, NY, USA) in PBS (Lonza, Verviers, Belgium). After five days, 30μl of test formulation with different doses of P3 diluted in PBS was applied intravaginally daily for 7 days by vaginal gavage to animals previously anesthetized with isoflurane (Forane, Abbott, Madrid). Controls included mice that received PBS (placebo group) and 3% nonoxynol-9 (N9) in PBS (irritation control group). On the eighth day, mice were sacrificed and genital tract tissue were extracted and fixed in 4% paraformaldehyde for histological analysis. The animals were distributed in groups of three mice each: group placebo only treated with PBS (1–3), group A treated with dose of 0.06mg/day ([…]) of P3 in PBS (4–6), group B treated with dose of 0.2mg/day (1522.7 μM) of P3 in PBS (7–9), group C treated with dose of 0.4mg/day (3045.3 μM) of P3 in PBS (10–12) and group irritation control treated with 3% N9 in PBS (13–15).
The presence of histological lesions in the mouse vaginas was evaluated with hematoxylin-eosin staining. Samples were embedded in paraffin by submersion in increasing concentrations of ethanol in water (Rectapur, VWR, England), two baths of xylene (Analar (VWR, England) and another of paraffin, before being placed in a paraffin mold. Subsequently, they were cut using a semimotorized microtome (RM2145 Leica, Germany) and processed for staining. For dewaxing, samples were submersed into two baths of xylene solution (10 min) and three baths in descending order of ethanol (100%, 90% and 70%) (5 min), before being stained with hematoxylin (Merck, Germany) for 5 min and eosin (Merck, Germany) for another 5 min. Post-eosin staining dehydration was performed with passages in increasing concentrations of ethanol (70%, 90% and 100%) and a bath of xylene solution. Finally, they were mounted with D.P.X. (Prolabo, VWR, Spain).
The existence of injury in vaginal epithelium, inflammatory infiltrate, vascular congestion and/or edema in the submucosa was evaluated in each biological sample. The values (score) assigned for each of these lesions were: 0 (no change) when no injury or the observed changes were within normal range; 1 (minimum) when changes were sparse but exceeded those considered normal; 2 (light) when injuries were identifiable but with no severity; 3 (moderate) for significant injury that could increase in severity; 4 (very serious) for very serious injuries that occupy most of the analyzed tissue. These values were added up and determined the level of vaginal irritation as minimum 1–4, average 5–8, moderate 9–11 and severe 12–16 [34].

Lactobacillus rhamnosus = test: Anti-bacterial activity, MIC by agar diffusion; format: cell-based; conditions: disks, Rogosa agar, 37°C, microaerophilic, maximum concentration tested 228.4 μM
Method: (§1) Anti-bacterial activity of P3 was determined according to CLSI guidelines. The following bacteria were used: reference strains E. coli ATCC 10536, Staphylococcus aureus ATCC 6538, Bacillus subtilis ATCC 6633 and Enterococcus faecalis ATCC 29212; clinical strains of E. coli and Pseudomonas aeruginosa isolated in our laboratory; and strains of Lactobacillus rhamnosus and Lactobacillus plantarum also isolated in our laboratory. The Minimum Inhibitory Concentration (MIC) was determined by the agar diffusion method, in plates of Mueller-Hinton agar or Rogosa agar (for Lactobacilli). Briefly, 10^8cfu/ml bacterial suspensions were prepared in sterile water and spread in the culture media. Sterile disks containing different concentrations of P3 were placed on the inoculated surface. Plates were incubated at 37°C for 24h or 48h. Lactobacilli were incubated at microaerophilic conditions. A negative control made of sterile water was used. Disks of amoxicillin and imipenem were used as positive controls.

[2] = system: Staphylococcus aureus ATCC 6538; test: Anti-bacterial activity, MIC by agar diffusion; format: cell-based; conditions: disks, Mueller-Hinton agar, 37°C, maximum concentration tested 228.4 μM
Method: as §1

E. coli ATCC 10536 = test: Anti-bacterial activity, MIC by agar diffusion; format: cell-based; conditions: disks, Mueller-Hinton agar, 37°C, maximum concentration tested 228.4 μM
Method: as §1

[3] = system: Bacillus subtilis ATCC 6633; test: Anti-bacterial activity, MIC by agar diffusion; format: cell-based; conditions: disks, Mueller-Hinton agar, 37°C, maximum concentration tested 228.4 μM
Method: as §1

Lactobacillus plantarum = test: Anti-bacterial activity, MIC by agar diffusion; format: cell-based; conditions: disks, Rogosa agar, 37°C, microaerophilic, maximum concentration tested 228.4 μM
Method: as §1

[4] = system: Pseudomonas aeruginosa (clinical strain); test: Anti-bacterial activity, MIC by agar diffusion; format: cell-based; conditions: disks, Mueller-Hinton agar, 37°C, maximum concentration tested 228.4 μM
Method: as §1

[5] = system: Enterococcus faecalis ATCC 29212; test: Anti-bacterial activity, MIC by agar diffusion; format: cell-based; conditions: disks, Mueller-Hinton agar, 37°C, maximum concentration tested 228.4 μM
Method: as §1

[6] = system: E. coli (clinical strain); test: Anti-bacterial activity, MIC by agar diffusion; format: cell-based; conditions: disks, Mueller-Hinton agar, 37°C, maximum concentration tested 228.4 μM
Method: as §1

[7] = 456 μM/day P3 in PBS intravaginally, mouse 4
[8] = 456 μM/day P3 in PBS intravaginally, mouse 5
[9] = 456 μM/day P3 in PBS intravaginally, mouse 6
[10] = 1522.7 μM/day P3 in PBS intravaginally, mouse 7
[11] = 1522.7 μM/day P3 in PBS intravaginally, mouse 8
[12] = 1522.7 μM/day P3 in PBS intravaginally, mouse 9
[13] = 3045.3 μM/day P3 in PBS intravaginally, mouse 10
[14] = 3045.3 μM/day P3 in PBS intravaginally, mouse 11
[15] = 3045.3 μM/day P3 in PBS intravaginally, mouse 12

In the case of `CC[C@H](C)[C@H](NC(=O)[C@H](CC(N)=O)NC(=O)[C@H](C)NC(=O)[C@H](CCC(=O)O)NC(=O)[C@H](CC(C)C)NC(=O)[C@H](Cc1ccc(O)cc1)NC(=O)[C@H](CCCNC(=N)N)NC(=O)[C@@H](NC(=O)[C@H](CCC(N)=O)NC(=O)[C@H](CCC(N)=O)NC(=O)[C@H](CCC(=O)O)NC(=O)[C@H](Cc1c[nH]c2ccccc12)NC(=O)[C@H](CCC(=O)O)NC(=O)[C@H](CCC(N)=O)NC(=O)[C@H](Cc1c[nH]c2ccccc12)NC(C)=O)C(C)C)C(=O)N[C@@H](CO)C(=O)N[C@@H](CCC(N)=O)C(=O)N[C@@H](CCCNC(=N)N)C(=O)N[C@@H](CC(C)C)C(=O)N[C@@H](CCC(=O)O)C(=O)N[C@@H](CCC(N)=O)C(=O)N[C@@H](C)C(=O)N[C@@H](CCC(N)=O)C(=O)N[C@H](C(=O)N[C@@H](CCC(N)=O)C(=O)N[C@@H](CCC(N)=O)C(=O)N[C@@H](CCC(=O)O)C(=O)N[C@@H](CCCCN)C(=O)N[C@@H](CC(N)=O)C(=O)N[C@@H](CCSC)C(=O)N[C@@H](Cc1ccc(O)cc1)C(=O)N[C@@H](CCC(=O)O)C(=O)N[C@@H](CC(C)C)C(=O)N[C@@H](CCC(N)=O)C(N)=O)[C@@H](C)CC` [P3], the Edema/fibrosis [1, 7] is reported as 0, the Epithelial lesion [1, 7] is reported as 1 and the Inflammatory infiltrate [1, 7] is reported as 0. For the same molecule, the Vascular congestion [1, 7] was 1, the “Total Score” value [1, 7] was 2 and the Edema/fibrosis [1, 8] was 1. It also gave an Epithelial lesion [1, 8] of 1, an Inflammatory infiltrate [1, 8] of 1 and a Vascular congestion [1, 8] of 0. The “Total Score” value [1, 8] was 3, the Edema/fibrosis [1, 9] was 0 and the Epithelial lesion [1, 9] was 0. The Inflammatory infiltrate [1, 9] was 0, the Vascular congestion [1, 9] was 0 and the “Total Score” value [1, 9] was 0. For the same molecule, the Edema/fibrosis [1, 10] was 0, the Epithelial lesion [1, 10] was 1 and the Inflammatory infiltrate [1, 10] was 1. For the same molecule, the Vascular congestion [1, 10] was 1, the “Total Score” value [1, 10] was 3 and the Edema/fibrosis [1, 11] was 0. It also gave an Epithelial lesion [1, 11] of 0, an Inflammatory infiltrate [1, 11] of 0 and a Vascular congestion [1, 11] of 1. For the same molecule, the “Total Score” value [1, 11] was 1, the Edema/fibrosis [1, 12] was 0 and the Epithelial lesion [1, 12] was 0. For the same molecule, the Inflammatory infiltrate [1, 12] was 2, the Vascular congestion [1, 12] was 2 and the “Total Score” value [1, 12] was 4. It also gave an Edema/fibrosis [1, 13] of 0, an Epithelial lesion [1, 13] of 4 and an Inflammatory infiltrate [1, 13] of 3. It also gave a Vascular congestion [1, 13] of 3, an Edema/fibrosis [1, 14] of 0 and an Epithelial lesion [1, 14] of 2. The Inflammatory infiltrate [1, 14] was 0, the Vascular congestion [1, 14] was 1 and the “Total Score” value [1, 14] was 3. It also gave an Edema/fibrosis [1, 15] of 1, an Epithelial lesion [1, 15] of 4 and an Inflammatory infiltrate [1, 15] of 2. The Vascular congestion [1, 15] was 2, the “injuries (histology)” value ([1]; group A, 0.06 mg/day (456.8 μM) P3, 7 days) was “minimal or even absent” and the “level of irritation of the vaginal wall” value ([1]; group B, 0.2 mg/day (1522.7 μM) P3, 7 days) was “minimal”. The “score of vaginal irritation” value ([1]; group C, 0.4 mg/day (3045.3 μM) P3, 7 days, mice 10 and 12) was “moderate (moderate 9–11)”, the “irritation of the vaginal epithelium” value ([1]; group C, 0.4 mg/day (3045.3 μM) P3, 7 days, the other mouse (sample 11)) was “minimal” and the MIC (Lactobacillus rhamnosus) was > 228.4 µM. For the same molecule, the MIC [2] was > 228.4 µM, the MIC (E. coli ATCC 10536) was > 228.4 µM and the MIC [3] was > 228.4 µM. For the same molecule, the MIC (Lactobacillus plantarum) was > 228.4 µM, the MIC [4] was > 228.4 µM and the MIC [5] was > 228.4 µM. The MIC [6] was > 228.4 µM.
